From patent publication US12208095B2, “Methods of treating breast cancer with tetrahydronaphthalene derivatives as estrogen receptor degraders” (Arvinas Operations, Inc., priority 2019, dated 2025)

How the values were obtained:
[1] = tested on: ER-dependent cell lines; assay: cell proliferation of ER-dependent cell lines; type: cell-based
[2] = tested on: MCF7 xenograft; assay: tumor growth inhibition in orthotopic MCF7/estradiol xenograft model; type: in vivo, NOD/SCID mice
Method: Species: NOD/SCID female mice (Charles River, 6-7 weeks old upon arrival).
Animal handling: Axial mammary fat pad implantation of 5×10^6 MCF7 cells/200 per mouse (17β-estradiol 0.36 mg 90-day pellet implanted day before).
Tumor volumes were evaluated twice per week for twenty-eight days.
Sampling: Tumors were measured twice weekly. Terminal sacrifice was ˜18 hr after last dose; tumors were harvested, divided, and flash frozen. ERα levels were determined by immunoblotting.
Tumor volume calculation: Tumor Volume=(width×width×length)/2, where all measurements are in mm and the tumor volume is in mm^3.
Tumor Growth Inhibition (TGI) calculation: TGI (%)
NOD/SCID female mice (Charles River, 6-7 weeks old upon arrival) received implantation of 5×10^6 MCF7 cells/200 μL per mouse in axial mammary fat pad (17β-estradiol 0.36 mg 90-day pellet implanted day before). Compound administration was initiated once the tumors reached 200 mm^3. Diet was supplemented with peanut butter to help maintain body weights.
The ratio of Tween 80 to PEG-400 is 0.02 g Tween 80 to 1 ml PEG-400. PEG-400 is added to a pre-aliquoted volume of Tween 80. • For fulvestrant: 10% w/v Ethanol, 10% w/v Benzyl Alcohol, and 15% w/v Benzyl Benzoate as co-solvents and made up to 100% w/v with Castor Oil (‘EBB/Castor Oil’) • For palbociclib: 50 mM sodium lactate, pH 4.0 (‘Sodium lactate’)
Sampling: tumors were measured twice weekly. Terminal sacrifice was ˜18 hr after last dose; tumors were harvested, divided, and flash frozen. ERα levels were determined by immunoblotting.

[3] = molecular target: T1, ERα (Homo sapiens, UniProt P03372); assay: ERα levels in tamoxifen-resistant MCF7 xenograft tumors (immunoblot); type: in vivo, Ovariectomized Nu/Nu female mice; parameters: endogenous in cells; host or cells: tamoxifen-resistant MCF7 tumour fragments passaged in ovariectomized Nu/Nu mice; settings: study termination; Compound (I-c) 30 mg/kg; palbociclib 60 mg/kg; oral QDx28
T1 sequence (P03372 1-595): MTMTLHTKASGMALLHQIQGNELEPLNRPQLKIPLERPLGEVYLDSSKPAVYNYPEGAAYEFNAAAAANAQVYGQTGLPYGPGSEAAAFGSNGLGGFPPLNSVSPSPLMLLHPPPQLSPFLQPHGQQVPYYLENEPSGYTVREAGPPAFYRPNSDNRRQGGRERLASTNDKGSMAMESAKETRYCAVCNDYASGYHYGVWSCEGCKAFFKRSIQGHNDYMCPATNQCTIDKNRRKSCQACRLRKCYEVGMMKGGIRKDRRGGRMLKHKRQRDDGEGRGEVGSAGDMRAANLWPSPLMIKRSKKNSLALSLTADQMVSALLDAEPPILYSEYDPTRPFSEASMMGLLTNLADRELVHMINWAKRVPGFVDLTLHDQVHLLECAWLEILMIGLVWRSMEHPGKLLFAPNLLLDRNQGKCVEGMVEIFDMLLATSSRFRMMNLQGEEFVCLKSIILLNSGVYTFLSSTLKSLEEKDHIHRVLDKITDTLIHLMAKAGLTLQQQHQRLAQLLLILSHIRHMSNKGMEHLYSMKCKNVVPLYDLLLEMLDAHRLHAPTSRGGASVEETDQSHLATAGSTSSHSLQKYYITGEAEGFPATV
Method: At study termination, the tumors were removed from the mice, and ERα levels were determined by immunoblotting the tumor homogenates. […] ERα levels from the various compound arms were compared to vehicle-treated animals by analyzing the tumor lysates on separate immunoblots (graphs in FIG. 10, FIG. 11, and FIG. 12 depict data from individual immunoblots) and the average ERα levels with standard deviation is shown.
Sampling: Tumors were measured twice weekly. Terminal sacrifice was ˜18 hr after last dose; tumors were harvested, divided, and flash frozen. ERα levels were determined by immunoblotting (see Appendix 1 for details).
Flash frozen tumors were removed from −80° C. storage and placed on dry ice. RIPA lysis buffer and Halt protease inhibitors were used at 400 μl per tumor sample. A steel ball (5 mm) was placed in each sample for tissue disruption. Samples were lysed with TissueLyzer at 24 Hz for 4 minutes. The homogenization was stopped half way through the process and the block flipped over for the duration of the process. […] Lysates were then measured for total protein concentration by BCA (per manufacturer's protocol). […]
Protein was transferred from gels to nitrocellulose with Bio-Rad Turbo on default setting. […] The blots were cut so that beta-actin and ERα can be detected from the same lane/sample. […]

For `O=C1CC[C@H](N2Cc3cc(N4CCN(CC5CCN(c6ccc([C@@H]7c8ccc(O)cc8CC[C@@H]7c7ccccc7)cc6)CC5)CC4)ccc3C2=O)C(=O)N1` [Compound (I-c), (3S)-3-[5-[4-[[1-[4-[(1R, 2S)-6-hydroxy-2-phenyl-tetralin-1-yl]phenyl]-4-piperidyl]methyl]piperazin-1-yl]-1-oxo-isoindolin-2-yl]piperidine-2,6-dione], which “cell proliferation of ER-dependent cell lines” value [1] is on record?
The value was “inhibits cell proliferation”.

What about the “Day 0 Tumor volume (mean ± SD)” value ([2]; 3 mg/kg oral QDx28, n = 10) of the same compound?
The value was 217 ± 67 mm^3.

What about the “Day 0 Tumor volume (mean ± SD)” value ([2]; 10 mg/kg oral QDx28, n = 9) of the same compound?
Its value is 218 ± 65 mm^3.

And the “Day 0 Tumor volume (mean ± SD)” value ([2]; 30 mg/kg oral QDx28, n = 10)?
The value was 217 ± 66 mm^3.

And the “% TGI” value ([2]; MCF7/estradiol, 30 mg/kg, summary over studies)?
The value was 105-124%.

What about the “Day 0 Tumor volume (mean ± SD)” value ([2]; combination study: Compound (I-c) 30 mg/kg oral QDx28, palbociclib 60 mg/kg oral QDx28, fulvestrant 200 mg/kg SC, n = 10) of the same compound?
Its value is 199 ± 55 mm^3.

And the “reduction of tumor ERα levels compared to vehicle (% ERα ↓)” value [3]?
Its value is 73%.
